A value given as a limit tells only on which side of the number the result lay.

The target of the assay is PI 3-Kinase Gamma (Homo sapiens (Human), UniProt P48736). In words: Cellular U937 AKT assay for PI 3-kinase gamma. Format: cell-based. The note with it: U937 cells, MIP1α-stimulated AKT phosphorylation, read-out: Cell PI3K gamma IC50. The procedure: The U937 monocyte cell line is maintained in a basal medium of RPMI 1640 supplemented with 10% heat inactivated FCS, 100 U/ml Penicillin, 100 ug/ml streptomycin and 2 mM L-glutamine (Invitrogen). U937 suspension culture is maintained by seeding cells at a density of 0.125×10^6 cells per ml in fresh medium every three or four days. Cells are incubated at 37° C., 5% CO2. […] Before beginning the cell manipulations described below, the MSD (Meso Scale Discovery) assay plate is blocked by addition of 150 ul/well blocking buffer supplied and incubated with shaking for a minimum of one hour at room temperature. All steps of the assay must be performed quickly, with accurately timed incubation periods and observing temperature controls where indicated. […] Falcon tube, counted and centrifuged for eight minutes at 300 g at room temperature. Supernatant is aspirated, the cell pellet resuspended and washed once in HBSS (Hank's Balanced Salt Solution) by centrifugation for eight minutes at 300 g at room temperature. The cell pellet is resuspended in HBSS to a concentration of 4×10^6 per ml, and 100 μL of cell suspension added to each well of a flat-bottomed 96-well tissue culture plate. Assay plates are incubated for 1.5 hours at 37° C., 5% CO2 to allow background AKT phosphorylation to reduce before the compound stimulation step. […] Compound concentrations at this stage are 4-times the final concentration required in the assay plate. Cells are stimulated with compound or HBSS 0.8% DMSO by direct transfer of 50 ul/well from the compound dilution plate. The assay plate containing compound-treated cells is then incubated for 30 minutes at 37° C. A standard plate layout is used for all experiments. Compound-treated cells, in addition to positive control wells (“max MIP1α”), are stimulated with 50 μL per well of 40 ng/ml MIP1α (R&D Systems catalogue number 270-LD, lyophilized stock reconstituted to 50 μg/ml with PBS 0.1% BSA). Negative control wells (“min HBSS”), are stimulated with 50 μl/well of HBSS in the absence of MIP1α. […] Cells are incubated with MIP1α for 3 minutes, at 37° C., 5% CO2. After the three minute stimulation period, the assay plate is kept ice cold at all times. Assay plates are centrifuged for 2 minutes at 300 g, 4° C. and supernatant is removed by gently inverting, and then blotting the plate on tissue. Cells are then washed by gentle addition of 150 μL/well of ice cold HBSS and centrifugation at 300 g, for 5 minutes at 4° C. Supernatant is aspirated and the plate blotted as described above. The plate is placed on ice and cells are immediately treated with 35 μL per well of ice cold lysis buffer, prepared according to the kit instructions (per assay plate, to 5 ml of Tris lysis buffer add 100 μl of 50× protease inhibitor solution and 50 μl of each 100× phosphatase inhibitor solutions I and II). Plates are incubated on ice for 20 minutes before centrifugation at 841 g for 5 minutes, 4° C. Block buffer is aspirated from the MSD plate, and the plate washed four times with 300 μl/well Tris wash buffer. 25 μL of cell lysate is then transferred from the assay plate to the washed MSD plate which is sealed and incubated at room temperature for one hour with shaking. The plate is washed four times with 300 μL per well of Tris wash buffer before addition of 25 μL per well of sulfo-tag anti-total AKT/pAKT detection antibody (60 μl of 50× antibody stock is diluted in 1 ml block buffer mixed with 2 ml wash buffer) and incubated at room temperature for one hour with shaking. The plate is washed four times with 300 μl per well of Tris wash buffer and 150 μl per well of Read buffer is added, taking care to avoid the introduction of bubbles. The plate is immediately read using an MSD SECTOR Imager 6000. Results are exported in Excel and the percentage of phosphorylated AKT is calculated using the equation: % Phosphoprotein=((2*Phospho signal)/(Phospho signal+Total signal))*100. […]
PI 3-Kinase Gamma, sequence (P48736 whole entry): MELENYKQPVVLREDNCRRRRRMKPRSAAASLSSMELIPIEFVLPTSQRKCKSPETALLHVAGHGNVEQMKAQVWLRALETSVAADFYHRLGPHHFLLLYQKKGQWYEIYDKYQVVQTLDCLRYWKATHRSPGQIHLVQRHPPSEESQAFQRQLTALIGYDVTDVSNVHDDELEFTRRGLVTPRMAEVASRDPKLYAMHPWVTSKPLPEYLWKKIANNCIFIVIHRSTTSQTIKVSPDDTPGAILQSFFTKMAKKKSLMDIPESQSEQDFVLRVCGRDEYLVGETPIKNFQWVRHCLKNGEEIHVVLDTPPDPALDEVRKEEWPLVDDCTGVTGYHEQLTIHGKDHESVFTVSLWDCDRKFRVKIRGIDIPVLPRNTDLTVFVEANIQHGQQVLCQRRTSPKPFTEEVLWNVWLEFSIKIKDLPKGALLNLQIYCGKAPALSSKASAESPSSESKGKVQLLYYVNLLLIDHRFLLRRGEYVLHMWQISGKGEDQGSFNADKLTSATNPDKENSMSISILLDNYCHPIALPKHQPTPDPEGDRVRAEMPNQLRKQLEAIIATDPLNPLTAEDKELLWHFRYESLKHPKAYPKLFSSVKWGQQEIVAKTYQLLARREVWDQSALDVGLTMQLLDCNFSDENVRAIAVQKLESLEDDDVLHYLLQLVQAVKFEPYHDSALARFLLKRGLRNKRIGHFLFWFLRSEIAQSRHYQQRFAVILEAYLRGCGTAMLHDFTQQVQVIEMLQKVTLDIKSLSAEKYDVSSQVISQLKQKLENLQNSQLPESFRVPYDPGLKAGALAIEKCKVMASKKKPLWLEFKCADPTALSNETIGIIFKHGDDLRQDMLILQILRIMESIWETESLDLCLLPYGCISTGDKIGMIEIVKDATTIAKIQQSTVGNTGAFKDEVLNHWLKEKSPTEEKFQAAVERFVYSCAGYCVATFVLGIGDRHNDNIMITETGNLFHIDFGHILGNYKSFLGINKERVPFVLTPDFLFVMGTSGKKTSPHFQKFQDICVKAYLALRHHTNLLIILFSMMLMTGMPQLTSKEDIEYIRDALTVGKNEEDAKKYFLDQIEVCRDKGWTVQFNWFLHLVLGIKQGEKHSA
For orientation: IC50 means the concentration needed to halve the response being measured. Regarding `Cc1nc(N)nc(N2C[C@@H](O)C[C@H]2c2nc3ccc(F)c(-c4cnn(C)c4)c3c(=O)n2-c2ccccc2)c1C#N` [Example 1, 2-Amino-4-((2S,4S)-2-(6-fluoro-5-(1-methyl-1H-pyrazol-4-yl)-4-oxo-3-phenyl-3,4-dihydroquinazolin-2-yl)-4-hydroxypyrrolidin-1-yl)-6-methylpyrimidine-5-carbonitrile], the IC50 was found to be 32 nM.

Consider `COc1ncc(-c2cccc3nc([C@@H]4CCCN4c4ncnc(N)c4C#N)n(-c4ccccc4)c(=O)c23)cn1` [Example 3, (S)-4-Amino-6-(2-(5-(2-methoxypyrimidin-5-yl)-4-oxo-3-phenyl-3,4-dihydroquinazolin-2-yl)pyrrolidin-1-yl)pyrimidine-5-carbonitrile], for which the half-inhibitory concentration (IC50) was determined as 430 nM. For `COc1ncc(-c2cccc3nc([C@@H]4CCCN4c4nc(N)nc(C)c4C#N)n(-c4ccccc4)c(=O)c23)cn1` [Example 4, (S)-2-Amino-4-(2-(5-(2-methoxypyrimidin-5-yl)-4-oxo-3-phenyl-3,4-dihydroquinazolin-2-yl)pyrrolidin-1-yl)-6-methylpyrimidine-5-carbonitrile] the value was 40 nM; for `Cn1cc(-c2c(F)ccc3nc([C@@H]4CCCN4c4ncnc(N)c4C#N)n(-c4ccccc4)c(=O)c23)cn1` [Example 5, (S)-4-Amino-6-(2-(6-fluoro-5-(1-methyl-1H-pyrazol-4-yl)-4-oxo-3-phenyl-3,4-dihydroquinazolin-2-yl)pyrrolidin-1-yl)pyrimidine-5-carbonitrile], 220 nM; for `Cc1nc(N)nc(N2CCC[C@H]2c2nc3ccc(F)c(-c4cnn(C)c4)c3c(=O)n2-c2ccccc2)c1C#N` [Example 6, (S)-2-Amino-4-(2-(6-fluoro-5-(1-methyl-1H-pyrazol-4-yl)-4-oxo-3-phenyl-3,4-dihydroquinazolin-2-yl)pyrrolidin-1-yl)-6-methylpyrimidine-5-carbonitrile], 41 nM.

In the case of `COc1ncc(-c2c(F)ccc3nc([C@@H]4C[C@H](O)CN4c4nc(N)nc(C)c4C#N)n(-c4ccccc4)c(=O)c23)cn1` [Example 7, 2-Amino-4-((2S,4S)-2-(6-fluoro-5-(2-methoxypyrimidin-5-yl)-4-oxo-3-phenyl-3,4-dihydroquinazolin-2-yl)-4-hydroxypyrrolidin-1-yl)-6-methylpyrimidine-5-carbonitrile], the IC50 was determined as 25 nM. For `Cn1cc(-c2c(F)ccc3nc([C@@H]4C[C@H](O)CN4c4ncnc(N)c4C#N)n(-c4ccccc4)c(=O)c23)cn1` [Example 8, 4-Amino-6-((2S,4S)-2-(6-fluoro-5-(1-methyl-1H-pyrazol-4-yl)-4-oxo-3-phenyl-3,4-dihydroquinazolin-2-yl)-4-hydroxypyrrolidin-1-yl) pyrimidine-5-carbonitrile] the value was 29 nM; for `COc1ncc(-c2c(F)ccc3nc([C@@H]4C[C@H](O)CN4c4nc(N)nc(C)c4C#N)n(-c4ccccc4)c(=O)c23)s1` [Example 9, 2-Amino-4-((2S,4S)-2-(6-fluoro-5-(2-methoxythiazol-5-yl)-4-oxo-3-phenyl-3,4-dihydroquinazolin-2-yl)-4-hydroxypyrrolidin-1-yl)-6-methylpyrimidine-5-carbonitrile], 56 nM. As to `CO[C@H]1C[C@@H](c2nc3cccc(-c4cnn(C)c4)c3c(=O)n2-c2ccccc2)N(c2nc(N)nc(C)c2C#N)C1` [Example 10, 2-Amino-4-((2S,4S)-4-methoxy-2-(5-(1-methyl-1H-pyrazol-4-yl)-4-oxo-3-phenyl-3,4-dihydroquinazolin-2-yl)pyrrolidin-1-yl)-6-methylpyrimidine-5-carbonitrile], the IC50 turned out to be 38 nM. Regarding `CO[C@H]1C[C@@H](c2nc3cccc(-c4cnn(C)c4)c3c(=O)n2-c2ccccc2)N(c2nc(N)nc3[nH]cnc23)C1` [Example 11, 2-((2S,4S)-1-(2-Amino-9H-purin-6-yl)-4-methoxypyrrolidin-2-yl)-5-(1-methyl-1H-pyrazol-4-yl)-3-phenylquinazolin-4(3H)-one], the concentration for half-maximal inhibition (IC50) came to 340 nM.

Regarding `COc1ncc(-c2cccc3nc([C@@H]4C[C@H](OC)CN4c4nc(N)nc(C)c4C#N)n(-c4ccccc4)c(=O)c23)cn1` [Example 12, 2-Amino-4-((2S,4S)-4-methoxy-2-(5-(2-methoxypyrimidin-5-yl)-4-oxo-3-phenyl-3,4-dihydroquinazolin-2-yl)pyrrolidin-1-yl)-6-methylpyrimidine-5-carbonitrile], the IC50 came out at 120 nM. As for `Cc1ccccc1-n1c([C@@H]2CCCN2c2ncnc(N)c2C#N)nc2cccc(-c3cnn(C)c3)c2c1=O` [Example 14, (S)-4-Amino-6-(2-(5-(1-methyl-1H-pyrazol-4-yl)-4-oxo-3-(otolyl)-3,4-dihydroquinazolin-2-yl)pyrrolidin-1-yl)pyrimidine-5-carbonitrile], the IC50 is 210 nM.

As to `Cn1cnc(-c2cccc3nc([C@@H]4CCCN4c4ncnc(N)c4C#N)n(-c4ccccc4)c(=O)c23)c1` [Example 15, (S)-4-Amino-6-(2-(5-(1-methyl-1H-imidazol-4-yl)-4-oxo-3-phenyl-3,4-dihydroquinazolin-2-yl)pyrrolidin-1-yl)pyrimidine-5-carbonitrile], the IC50 was > 10000 nM. Regarding `Cc1nc(N)nc(N2C[C@@H](O)C[C@H]2c2nc3cccc(-c4cnn(C)c4)c3c(=O)n2-c2ccccc2)c1C#N` [Example 16, 2-Amino-4-((2S,4S)-4-hydroxy-2-(5-(1-methyl-1H-pyrazol-4-yl)-4-oxo-3-phenyl-3,4-dihydroquinazolin-2-yl)pyrrolidin-1-yl)-6-methylpyrimidine-5-carbonitrile], the half-maximal inhibitory concentration (IC50) came out at 55 nM. On to `Cc1nc(N)nc(N2CCC[C@H]2c2nc3cccc(-c4cncnc4)c3c(=O)n2-c2ccccc2)c1C#N` [Example 17, (S)-2-Amino-4-methyl-6-(2-(4-oxo-3-phenyl-5-(pyrimidin-5-yl)-3,4-dihydroquinazolin-2-yl)pyrrolidin-1-yl)pyrimidine-5-carbonitrile], for which the IC50 was 290 nM. As for `COc1cncc(-c2cccc3nc([C@@H]4CCCN4c4nc(N)nc(C)c4C#N)n(-c4ccccc4)c(=O)c23)c1` [Example 18, (S)-2-Amino-4-(2-(5-(5-methoxypyridin-3-yl)-4-oxo-3-phenyl-3,4-dihydroquinazolin-2-yl)pyrrolidin-1-yl)-6-methylpyrimidine-5-carbonitrile], the 50% inhibitory concentration (IC50) is 16 nM. For the molecule `Cc1ncc(-c2cccc3nc([C@@H]4CCCN4c4nc(N)nc(C)c4C#N)n(-c4ccccc4)c(=O)c23)cn1` [Example 19, (S)-2-Amino-4-methyl-6-(2-(5-(2-methylpyrimidin-5-yl)-4-oxo-3-phenyl-3,4-dihydroquinazolin-2-yl)pyrrolidin-1-yl)pyrimidine-5-carbonitrile], the IC50 was found to be 220 nM. For `Cc1nc(N)nc(N2CCC[C@H]2c2nc3cccc(-c4cccnc4)c3c(=O)n2-c2ccccc2)c1C#N` [Example 20, (S)-2-Amino-4-methyl-6-(2-(4-oxo-3-phenyl-5-(pyridin-3-yl)-3,4-dihydroquinazolin-2-yl)pyrrolidin-1-yl)pyrimidine-5-carbonitrile] the value was 270 nM. Take `COc1ccc(-c2cccc3nc([C@@H]4CCCN4c4nc(N)nc(C)c4C#N)n(-c4ccccc4)c(=O)c23)cn1` [Example 21, (S)-2-Amino-4-(2-(5-(6-methoxypyridin-3-yl)-4-oxo-3-phenyl-3,4-dihydroquinazolin-2-yl)pyrrolidin-1-yl)-6-methylpyrimidine-5-carbonitrile]: the IC50 was 1100 nM.

Values taken from patent US9840498B2, “Substituted quinazolin-4-one derivatives” (NOVARTIS AG, priority 2013, dated 2017).
